{
  "source": "patent US20180333382A1",
  "about": "“PHARMACEUTICAL COMPOSITIONS COMPRISING DGLA AND USE OF SAME” (DS Biopharma Limited, priority 2017, published 2018)",
  "assay": "Phase one study part 2: multiple dose (28 days) plasma PK of free and total DGLA",
  "assay_type": "in vivo, human",
  "protocol": "Multiple dose part two of the study comprised two cohorts (Cohorts five and six) of eight subjects each, who were administered multiple doses of study drug in the fasted state for 28 days. Subjects in Cohorts five and six received DS107G at 2000 or 4000 mg, respectively, or matching placebo once daily for 28 days. Cohort six was started after Cohort five's safety data were evaluated by the SMC. No interim analysis was planned. […]\nIn Part two of the study (Cohorts five and six), subjects were administered study drug (500-mg DS107G capsules or matching placebo capsules) once daily in the fasted state for 28 days. Subjects in Cohort five received study drug first and, if they tolerated the 2000-mg daily dose for the first 14 days, subjects in Cohort six were started on the 4000-mg daily dose for 28 days.\nPK parameter was computed after correcting the dosed DGLA concentrations with baseline DGLA concentrations.",
  "key": {"[1]": {"conditions": "2000 mg once daily, Day 1, 0 to 24 hours"}, "[2]": {"conditions": "2000 mg once daily, Day 28, 0 to 24 hours"}, "[3]": {"conditions": "2000 mg once daily, Day 28, 0 to 168 hours"}, "[4]": {"conditions": "2000 mg once daily, Day 28: 0 to 24 hours"}, "[5]": {"conditions": "4000 mg once daily, Day 1, 0 to 24 hours"}, "[6]": {"conditions": "4000 mg once daily, Day 28, 0 to 24 hours"}},
  "data": [
    {"smiles": "CCCCC/C=C\\C/C=C\\C/C=C\\CCCCCCC(=O)O", "note": "[DS107G, Dihomo gamma linolenic acid]", "values": [
      {"measurement": "free DGLA mean accumulation ratio (AR), AUC", "setting": "2000 mg", "result": "~3.3"},
      {"measurement": "free DGLA mean accumulation ratio (AR), Cmax", "setting": "2000 mg", "result": "~2.8"},
      {"measurement": "AUC0-24, mean, free DGLA, baseline-corrected plasma", "setting": "[1]", "result": 4548.7, "unit": "ng·h/mL"},
      {"measurement": "AUC0-24/Dose, mean, free DGLA, baseline-corrected plasma", "setting": "[1]", "result": 2.27, "unit": "h/kL"},
      {"measurement": "AUC0-24/Dose, mean, total DGLA, baseline-corrected plasma", "setting": "[1]", "result": 149.09, "unit": "h/kL"},
      {"measurement": "AUC0-inf, mean, free DGLA, baseline-corrected plasma", "setting": "[1]", "result": 5955.6, "unit": "ng·h/mL"},
      {"measurement": "AUC0-inf/Dose, mean, free DGLA, baseline-corrected plasma", "setting": "[1]", "result": 2.98, "unit": "h/kL"},
      {"measurement": "AUC0-inf/Dose, mean, total DGLA, baseline-corrected plasma", "setting": "[1]", "result": 2080.61, "unit": "h/kL"},
      {"measurement": "CL/F, mean, free DGLA, baseline-corrected plasma", "setting": "[1]", "result": 0.5448, "unit": "kL/h"},
      {"measurement": "Cmax, mean, free DGLA, baseline-corrected plasma", "setting": "[1]", "result": 850.5, "unit": "ng/mL"},
      {"measurement": "Cmax/Dose, mean, free DGLA, baseline-corrected plasma", "setting": "[1]", "result": 0.425, "unit": "kL⁻¹"},
      {"measurement": "Cmax/Dose, mean, total DGLA, baseline-corrected plasma", "setting": "[1]", "result": 9.050, "unit": "kL⁻¹"},
      {"measurement": "λz, mean, free DGLA, baseline-corrected plasma", "setting": "[1]", "result": 0.2133, "unit": "h⁻¹"},
      {"measurement": "λz, mean, total DGLA, baseline-corrected plasma", "setting": "[1]", "result": 0.221, "unit": "h⁻¹"},
      {"measurement": "AUC0-24, mean, free DGLA, baseline-corrected plasma", "setting": "[2]", "result": 9248.1, "unit": "ng·h/mL"},
      {"measurement": "AUC0-24/Dose, mean, free DGLA, baseline-corrected plasma", "setting": "[2]", "result": 4.62, "unit": "h/kL"},
      {"measurement": "AUC0-24/Dose, mean, total DGLA, baseline-corrected plasma", "setting": "[2]", "result": 675.69, "unit": "h/kL"},
      {"measurement": "AUC0-inf, mean, free DGLA, baseline-corrected plasma", "setting": "[2]", "result": 10389.0, "unit": "ng·h/mL"},
      {"measurement": "AUC0-inf/Dose, mean, free DGLA, baseline-corrected plasma", "setting": "[2]", "result": 5.19, "unit": "h/kL"},
      {"measurement": "AUC0-inf/Dose, mean, total DGLA, baseline-corrected plasma", "setting": "[2]", "result": 2579.58, "unit": "h/kL"},
      {"measurement": "CL/F, mean, free DGLA, baseline-corrected plasma", "setting": "[2]", "result": 0.2002, "unit": "kL/h"},
      {"measurement": "Cmax, mean, free DGLA, baseline-corrected plasma", "setting": "[2]", "result": 1999.3, "unit": "ng/mL"},
      {"measurement": "Cmax/Dose, mean, free DGLA, baseline-corrected plasma", "setting": "[2]", "result": 1.000, "unit": "kL⁻¹"},
      {"measurement": "Cmax/Dose, mean, total DGLA, baseline-corrected plasma", "setting": "[2]", "result": 37.792, "unit": "kL⁻¹"},
      {"measurement": "λz, mean, free DGLA, baseline-corrected plasma", "setting": "[2]", "result": 0.1282, "unit": "h⁻¹"},
      {"measurement": "λz, mean, total DGLA, baseline-corrected plasma", "setting": "[2]", "result": 0.0199, "unit": "h⁻¹"},
      {"measurement": "AUC0-24, mean, free DGLA, baseline-corrected plasma", "setting": "[3]", "result": 9248.1, "unit": "ng·h/mL"},
      {"measurement": "AUC0-24/Dose, mean, free DGLA, baseline-corrected plasma", "setting": "[3]", "result": 4.62, "unit": "h/kL"},
      {"measurement": "AUC0-24/Dose, mean, total DGLA, baseline-corrected plasma", "setting": "[3]", "result": 675.69, "unit": "h/kL"},
      {"measurement": "AUC0-inf, mean, free DGLA, baseline-corrected plasma", "setting": "[3]", "result": 43024.8, "unit": "ng·h/mL"},
      {"measurement": "AUC0-inf/Dose, mean, free DGLA, baseline-corrected plasma", "setting": "[3]", "result": 21.51, "unit": "h/kL"},
      {"measurement": "AUC0-inf/Dose, mean, total DGLA, baseline-corrected plasma", "setting": "[3]", "result": 2513.91, "unit": "h/kL"},
      {"measurement": "CL/F, mean, free DGLA, baseline-corrected plasma", "setting": "[3]", "result": 0.0949, "unit": "kL/h"},
      {"measurement": "Cmax, mean, free DGLA, baseline-corrected plasma", "setting": "[3]", "result": 1999.3, "unit": "ng/mL"},
      {"measurement": "Cmax/Dose, mean, free DGLA, baseline-corrected plasma", "setting": "[3]", "result": 1.000, "unit": "kL⁻¹"},
      {"measurement": "Cmax/Dose, mean, total DGLA, baseline-corrected plasma", "setting": "[3]", "result": 37.792, "unit": "kL⁻¹"},
      {"measurement": "λz, mean, free DGLA, baseline-corrected plasma", "setting": "[3]", "result": 0.0250, "unit": "h⁻¹"},
      {"measurement": "λz, mean, total DGLA, baseline-corrected plasma", "setting": "[3]", "result": 0.0169, "unit": "h⁻¹"},
      {"measurement": "% PTF (peak trough fluctuation), mean, free DGLA, steady-state baseline-corrected plasma", "setting": "[4]", "result": 492.54, "unit": "%"},
      {"measurement": "% PTF (peak trough fluctuation), mean, total DGLA, steady-state baseline-corrected plasma", "setting": "[4]", "result": 62.50, "unit": "%"},
      {"measurement": "AR(AUC) accumulation ratio, mean, free DGLA, steady-state baseline-corrected plasma", "setting": "[4]", "result": 3.340},
      {"measurement": "AR(AUC) accumulation ratio, mean, total DGLA, steady-state baseline-corrected plasma", "setting": "[4]", "result": 7.991},
      {"measurement": "AR(Cmax) accumulation ratio, mean, free DGLA, steady-state baseline-corrected plasma", "setting": "[4]", "result": 2.796},
      {"measurement": "AR(Cmax) accumulation ratio, mean, total DGLA, steady-state baseline-corrected plasma", "setting": "[4]", "result": 5.156},
      {"measurement": "CLss/F, mean, free DGLA, steady-state baseline-corrected plasma", "setting": "[4]", "result": 0.2295, "unit": "kL/h"},
      {"measurement": "CLss/F, mean, total DGLA, steady-state baseline-corrected plasma", "setting": "[4]", "result": 0.0016, "unit": "kL/h"},
      {"measurement": "Cavg, mean, free DGLA, steady-state baseline-corrected plasma", "setting": "[4]", "result": 385.3, "unit": "ng/mL"},
      {"measurement": "Cavg, mean, total DGLA, steady-state baseline-corrected plasma", "setting": "[4]", "result": 56.3072, "unit": "µg/mL"},
      {"measurement": "Cmin, mean, free DGLA, steady-state baseline-corrected plasma", "setting": "[4]", "result": 100.8, "unit": "ng/mL"},
      {"measurement": "Cmin, mean, total DGLA, steady-state baseline-corrected plasma", "setting": "[4]", "result": 37933.3, "unit": "ng/mL"},
      {"measurement": "Vzss/F, mean, free DGLA, steady-state baseline-corrected plasma", "setting": "[4]", "result": 5.3096, "unit": "kL"},
      {"measurement": "Vzss/F, mean, total DGLA, steady-state baseline-corrected plasma", "setting": "[4]", "result": 0.0980, "unit": "kL"},
      {"measurement": "tmin, median, free DGLA, steady-state baseline-corrected plasma", "setting": "[4]", "result": 8.00, "unit": "h"},
      {"measurement": "tmin, median, total DGLA, steady-state baseline-corrected plasma", "setting": "[4]", "result": 1.50, "unit": "h"},
      {"measurement": "free DGLA mean accumulation ratio (AR), AUC", "setting": "4000 mg", "result": "~1.6"},
      {"measurement": "free DGLA mean accumulation ratio (AR), Cmax", "setting": "4000 mg", "result": "~1.4"},
      {"measurement": "AUC0-24, mean, free DGLA, baseline-corrected plasma", "setting": "[5]", "result": 11441.4, "unit": "ng·h/mL"},
      {"measurement": "AUC0-24/Dose, mean, free DGLA, baseline-corrected plasma", "setting": "[5]", "result": 2.86, "unit": "h/kL"},
      {"measurement": "AUC0-24/Dose, mean, total DGLA, baseline-corrected plasma", "setting": "[5]", "result": 114.05, "unit": "h/kL"},
      {"measurement": "AUC0-inf, mean, free DGLA, baseline-corrected plasma", "setting": "[5]", "result": 13900.3, "unit": "ng·h/mL"},
      {"measurement": "AUC0-inf/Dose, mean, free DGLA, baseline-corrected plasma", "setting": "[5]", "result": 3.48, "unit": "h/kL"},
      {"measurement": "CL/F, mean, free DGLA, baseline-corrected plasma", "setting": "[5]", "result": 0.3325, "unit": "kL/h"},
      {"measurement": "Cmax, mean, free DGLA, baseline-corrected plasma", "setting": "[5]", "result": 2641.5, "unit": "ng/mL"},
      {"measurement": "Cmax/Dose, mean, free DGLA, baseline-corrected plasma", "setting": "[5]", "result": 0.660, "unit": "kL⁻¹"},
      {"measurement": "Cmax/Dose, mean, total DGLA, baseline-corrected plasma", "setting": "[5]", "result": 6.967, "unit": "kL⁻¹"},
      {"measurement": "λz, mean, free DGLA, baseline-corrected plasma", "setting": "[5]", "result": 0.1504, "unit": "h⁻¹"},
      {"measurement": "AUC0-24, mean, free DGLA, baseline-corrected plasma", "setting": "[6]", "result": 16155.2, "unit": "ng·h/mL"},
      {"measurement": "AUC0-24/Dose, mean, free DGLA, baseline-corrected plasma", "setting": "[6]", "result": 4.04, "unit": "h/kL"}
    ]}
  ]
}
